Measured values from patent publication US9079868B2, “Selective glycosidase inhibitors and uses thereof” (Simon Fraser University, priority 2008, dated 2015).

Target: O-GlcNAcase (Homo sapiens (Human), UniProt O60502)
Assay: Determination of KI values for inhibition of O-GlcNAcase activity (pNP-GlcNAc substrate, Dixon plots)
Format: biochemical
Conditions: PBS pH 7.4, 0.5 mM pNP-GlcNAc, 37° C., linear regression of a Dixon plot
Experimental: Assay for Determination of […] for Inhibition of O-GlcNAcase Activity
Experimental Procedure for Kinetic Analyses:
Enzymatic reactions are carried out in PBS buffer (pH 7.4) using pNP-GlcNAc as a substrate (0.5 mM) and monitored continuously at 37° C. at 400 nm using a Cary 3E UV-VIS spectrophotometer equipped with a Peltier temperature controller. Reactions are pre-heated in a 500 μL quartz cuvette for approximately 5 minutes followed by addition of 10 μL enzyme via syringe (final enzyme concentration 0.002 mg/mL). Reaction velocities are determined by linear regression of the linear region of the reaction progress curve between the first and third minutes. An inhibitor concentration range of ⅕ to 5 times K1 is used in each case. […] All K1 values are determined using linear regression of Dixon plots.

Sequence of O-GlcNAcase (O60502 whole entry): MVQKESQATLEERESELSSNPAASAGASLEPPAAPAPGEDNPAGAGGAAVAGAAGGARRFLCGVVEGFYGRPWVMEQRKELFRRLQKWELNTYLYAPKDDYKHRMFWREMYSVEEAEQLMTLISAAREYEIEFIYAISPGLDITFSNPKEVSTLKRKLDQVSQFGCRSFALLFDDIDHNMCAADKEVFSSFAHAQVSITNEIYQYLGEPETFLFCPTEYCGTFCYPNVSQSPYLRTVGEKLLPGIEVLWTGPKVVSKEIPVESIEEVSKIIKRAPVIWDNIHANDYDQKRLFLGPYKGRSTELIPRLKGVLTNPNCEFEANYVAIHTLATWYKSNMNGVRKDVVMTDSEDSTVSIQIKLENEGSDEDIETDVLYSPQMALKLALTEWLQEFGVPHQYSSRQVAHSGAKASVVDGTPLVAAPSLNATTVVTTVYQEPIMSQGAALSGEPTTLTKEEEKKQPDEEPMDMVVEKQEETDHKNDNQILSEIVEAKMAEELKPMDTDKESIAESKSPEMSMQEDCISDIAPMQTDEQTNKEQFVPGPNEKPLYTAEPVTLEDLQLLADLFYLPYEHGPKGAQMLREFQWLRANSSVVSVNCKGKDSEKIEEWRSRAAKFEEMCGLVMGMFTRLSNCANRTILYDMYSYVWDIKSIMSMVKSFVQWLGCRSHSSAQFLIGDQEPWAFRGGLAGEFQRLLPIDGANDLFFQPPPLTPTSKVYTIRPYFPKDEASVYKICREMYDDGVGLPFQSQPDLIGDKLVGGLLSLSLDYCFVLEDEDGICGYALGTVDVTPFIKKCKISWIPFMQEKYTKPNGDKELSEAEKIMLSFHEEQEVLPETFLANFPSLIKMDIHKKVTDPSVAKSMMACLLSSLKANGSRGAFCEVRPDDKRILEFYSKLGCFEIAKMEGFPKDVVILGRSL

## CN(C)C1=N[C@@H]2[C@@H](O)[C@H](O)[C@@H](CO)[C@@H]2O1 [Compound 2, (3aR,4R,5R,6R,6aS)-2-(dimethylamino)-6-(hydroxymethyl)-4,5,6,6a-tetrahydro-3aH-cyclopenta[d]oxazole-4,5-diol]
  Ki: 40 µM
